Test results from ChEMBL document CHEMBL1201862, “PubChem BioAssay data set” (2004).
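Method: 48-hour compound exposure of cells in 96-well plates, five concentrations, linear interpolation of endpoints. Abbreviation: GI50, concentration required for 50% inhibition of growth.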 Activity calls are given as the source filed them. Rule as the data show it: active = GI50 up to about 1.1 µM and inactive = higher.

Legend:
Experiment in all cases: NCI tumour cell line growth inhibition, 48 h
786-0 = system: 786-0
A498 = system: A498
A549 = system: A549
ACHN = system: ACHN
CAKI-1 = system: CAKI-1
CCRF-CEM = system: CCRF-CEM
COLO 205 = system: COLO 205
DLD-1 = system: DLD-1
DMS-114 = system: DMS-114
DMS-273 = system: DMS-273
EKVX = system: EKVX
HCC 2998 = system: HCC 2998
HCT-116 = system: HCT-116
HCT-15 = system: HCT-15
HL-60 = system: HL-60
HOP-62 = system: HOP-62
HT-29 = system: HT-29
IGROV-1 = system: IGROV-1
K562 = system: K562
KM12 = system: KM12
LOX IMVI = system: LOX IMVI
LXFL 529 = system: LXFL 529
M14 = system: M14
M19-MEL = system: M19-MEL
MOLT-4 = system: MOLT-4
Malme-3M = system: Malme-3M
NCI-H226 = system: NCI-H226
NCI-H23 = system: NCI-H23
NCI-H460 = system: NCI-H460
NCI-H522 = system: NCI-H522
OVCAR-3 = system: OVCAR-3
OVCAR-4 = system: OVCAR-4
OVCAR-5 = system: OVCAR-5
OVCAR-8 = system: OVCAR-8
RPMI-8226 = system: RPMI-8226
SF-268 = system: SF-268
SF-295 = system: SF-295
SF-539 = system: SF-539
SK-MEL-28 = system: SK-MEL-28
SK-MEL-2 = system: SK-MEL-2
SK-MEL-5 = system: SK-MEL-5
SK-OV-3 = system: SK-OV-3
SN12C = system: SN12C
SNB-19 = system: SNB-19
SNB-75 = system: SNB-75
SR = system: SR
SW-620 = system: SW-620
TK-10 = system: TK-10
U-251 = system: U-251
UACC-257 = system: UACC-257
UACC-62 = system: UACC-62
UO-31 = system: UO-31
KM-20L2 = system: KM-20L2
RXF 393 = system: RXF 393
SNB-78 = system: SNB-78

Structure (SMILES): CCOC(=O)CC(NC(=O)c1nc[nH]c1/N=N/N(C)C)C(=O)OCC (stereo unspecified)
- GI50 (786-0): > 100 µM (inactive)
- GI50 (A498): > 100 µM (inactive)
- GI50 (A549): > 100 µM (inactive)
- GI50 (ACHN): > 100 µM (inactive)
- GI50 (CAKI-1): > 100 µM (inactive)
- GI50 (CCRF-CEM): > 100 µM (inactive)
- GI50 (COLO 205): > 100 µM (inactive)
- GI50 (DLD-1): > 100 µM (inactive)
- GI50 (DMS-114): > 100 µM (inactive)
- GI50 (DMS-273): > 100 µM (inactive)
- GI50 (EKVX): > 100 µM (inactive)
- GI50 (HCC 2998): > 100 µM (inactive)
- GI50 (HCT-116): > 100 µM (inactive)
- GI50 (HCT-15): > 100 µM
- GI50 (HL-60): > 100 µM (inactive)
- GI50 (HOP-62): > 100 µM (inactive)
- GI50 (HT-29): > 100 µM (inactive)
- GI50 (IGROV-1): > 100 µM (inactive)
- GI50 (K562): > 100 µM (inactive)
- GI50 (KM12): > 100 µM (inactive)
- GI50 (LOX IMVI): > 100 µM (inactive)
- GI50 (LXFL 529): > 100 µM (inactive)
- GI50 (M14): > 100 µM (inactive)
- GI50 (M19-MEL): > 100 µM (inactive)
- GI50 (MOLT-4): > 100 µM (inactive)
- GI50 (Malme-3M): > 100 µM (inactive)
- GI50 (NCI-H226): > 100 µM (inactive)
- GI50 (NCI-H23): > 100 µM (inactive)
- GI50 (NCI-H460): > 100 µM (inactive)
- GI50 (NCI-H522): > 100 µM (inactive)
- GI50 (OVCAR-3): > 100 µM (inactive)
- GI50 (OVCAR-4): > 100 µM (inactive)
- GI50 (OVCAR-5): > 100 µM (inactive)
- GI50 (OVCAR-8): > 100 µM (inactive)
- GI50 (RPMI-8226): > 100 µM (inactive)
- GI50 (SF-268): > 100 µM (inactive)
- GI50 (SF-295): > 100 µM (inactive)
- GI50 (SF-539): > 100 µM (inactive)
- GI50 (SK-MEL-28): > 100 µM (inactive)
- GI50 (SK-MEL-2): > 100 µM (inactive)
- GI50 (SK-MEL-5): > 100 µM (inactive)
- GI50 (SK-OV-3): > 100 µM (inactive)
- GI50 (SN12C): > 100 µM (inactive)
- GI50 (SNB-19): > 100 µM (inactive)
- GI50 (SNB-75): > 100 µM (inactive)
- GI50 (SR): > 100 µM (inactive)
- GI50 (SW-620): > 100 µM (inactive)
- GI50 (TK-10): > 100 µM (inactive)
- GI50 (U-251): > 100 µM (inactive)
- GI50 (UACC-257): > 100 µM (inactive)
- GI50 (UACC-62): > 100 µM (inactive)
- GI50 (UO-31): > 100 µM (inactive)

Structure (SMILES): CC[C@H](C)N(CCN)C(=O)c1cc2ccccc2c(-c2ccccc2Cl)n1
- GI50 (786-0): 4.49 µM (inactive)
- GI50 (A498): 4.07 µM (inactive)
- GI50 (A549): 4.41 µM (inactive)
- GI50 (ACHN): 14.9 µM (inactive)
- GI50 (CAKI-1): 5.57 µM (inactive)
- GI50 (CCRF-CEM): 3.3 µM (inactive)
- GI50 (COLO 205): 4.54 µM (inactive)
- GI50 (DMS-114): 13.9 µM (inactive)
- GI50 (DMS-273): 13.6 µM (inactive)
- GI50 (EKVX): 11.5 µM (inactive)
- GI50 (HCC 2998): 2.72 µM (inactive)
- GI50 (HCT-116): 2.85 µM (inactive)
- GI50 (HCT-15): 4.42 µM
- GI50 (HL-60): 7.67 µM (inactive)
- GI50 (HOP-62): 17.5 µM (inactive)
- GI50 (HT-29): 7.74 µM (inactive)
- GI50 (IGROV-1): 8.09 µM (inactive)
- GI50 (K562): 3.05 µM (inactive)
- GI50 (KM-20L2): 13.2 µM (inactive)
- GI50 (KM12): 14.9 µM (inactive)
- GI50 (LOX IMVI): 14.3 µM (inactive)
- GI50 (LXFL 529): 3.3 µM (inactive)
- GI50 (M14): 17.8 µM (inactive)
- GI50 (MOLT-4): 7.31 µM (inactive)
- GI50 (NCI-H226): 15 µM (inactive)
- GI50 (NCI-H23): 12.8 µM (inactive)
- GI50 (NCI-H460): 14.1 µM (inactive)
- GI50 (NCI-H522): 17.5 µM (inactive)
- GI50 (OVCAR-3): 16.6 µM (inactive)
- GI50 (OVCAR-4): 14.6 µM (inactive)
- GI50 (OVCAR-5): 14.7 µM (inactive)
- GI50 (OVCAR-8): 14.2 µM (inactive)
- GI50 (RPMI-8226): 13.2 µM (inactive)
- GI50 (RXF 393): 6.55 µM (inactive)
- GI50 (SF-268): 1.55 µM (inactive)
- GI50 (SF-295): 15.1 µM (inactive)
- GI50 (SF-539): 2.15 µM (inactive)
- GI50 (SK-MEL-28): 13.5 µM (inactive)
- GI50 (SK-MEL-2): 18.8 µM (inactive)
- GI50 (SN12C): 18.2 µM (inactive)
- GI50 (SNB-19): 16.1 µM (inactive)
- GI50 (SNB-78): 14.3 µM (inactive)
- GI50 (SR): 10.8 µM (inactive)
- GI50 (SW-620): 14.9 µM (inactive)
- GI50 (TK-10): 12.1 µM (inactive)
- GI50 (U-251): 11.6 µM (inactive)
- GI50 (UACC-257): 1.91 µM (inactive)
- GI50 (UACC-62): 10.8 µM (inactive)
- GI50 (UO-31): 12.7 µM (inactive)
